Measurements as given in PMC3091966 (2011).

Legend:
[1] = biological target: T1, human αβγ ENaC (α subunit) (Homo sapiens, UniProt P37088+P51168+P51170); test: two-electrode voltage clamp in Xenopus oocytes, block of current; assay type: cell-based
T1 sequence (P37088 1-669): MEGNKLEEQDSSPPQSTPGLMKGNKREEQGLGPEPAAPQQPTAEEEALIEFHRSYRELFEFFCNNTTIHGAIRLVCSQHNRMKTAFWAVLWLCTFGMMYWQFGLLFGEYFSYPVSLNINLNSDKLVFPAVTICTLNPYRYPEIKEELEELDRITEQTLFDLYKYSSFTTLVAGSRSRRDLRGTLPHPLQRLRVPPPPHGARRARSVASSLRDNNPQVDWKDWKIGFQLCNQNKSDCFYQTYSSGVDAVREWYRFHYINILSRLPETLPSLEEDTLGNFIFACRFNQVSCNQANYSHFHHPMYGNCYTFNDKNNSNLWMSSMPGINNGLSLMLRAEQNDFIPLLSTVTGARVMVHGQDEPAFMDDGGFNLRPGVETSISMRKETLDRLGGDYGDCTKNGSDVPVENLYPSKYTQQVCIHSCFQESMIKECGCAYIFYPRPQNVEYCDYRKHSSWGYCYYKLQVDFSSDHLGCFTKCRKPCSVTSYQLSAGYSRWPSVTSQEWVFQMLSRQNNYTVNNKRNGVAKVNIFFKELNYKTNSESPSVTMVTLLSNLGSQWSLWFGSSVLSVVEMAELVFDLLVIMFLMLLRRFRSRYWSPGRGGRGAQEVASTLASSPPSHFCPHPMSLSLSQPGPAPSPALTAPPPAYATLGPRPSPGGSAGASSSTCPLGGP
T1 sequence (P51168 1-640): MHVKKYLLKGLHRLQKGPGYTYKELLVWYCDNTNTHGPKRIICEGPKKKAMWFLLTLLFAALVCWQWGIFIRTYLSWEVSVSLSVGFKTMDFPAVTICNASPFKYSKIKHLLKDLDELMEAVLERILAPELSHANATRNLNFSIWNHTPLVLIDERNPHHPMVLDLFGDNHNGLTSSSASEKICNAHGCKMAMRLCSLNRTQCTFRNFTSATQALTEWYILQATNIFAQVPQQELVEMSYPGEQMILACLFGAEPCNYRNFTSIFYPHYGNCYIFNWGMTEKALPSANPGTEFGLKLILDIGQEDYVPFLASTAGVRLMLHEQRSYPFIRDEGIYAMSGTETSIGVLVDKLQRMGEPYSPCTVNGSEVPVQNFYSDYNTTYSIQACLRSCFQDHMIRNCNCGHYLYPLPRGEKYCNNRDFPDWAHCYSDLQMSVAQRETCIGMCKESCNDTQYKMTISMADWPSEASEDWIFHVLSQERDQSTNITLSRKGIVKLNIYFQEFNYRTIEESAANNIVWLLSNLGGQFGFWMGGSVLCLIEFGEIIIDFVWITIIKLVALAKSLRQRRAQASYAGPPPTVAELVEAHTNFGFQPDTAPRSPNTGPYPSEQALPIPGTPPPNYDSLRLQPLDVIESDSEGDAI
T1 sequence (P51170 1-649): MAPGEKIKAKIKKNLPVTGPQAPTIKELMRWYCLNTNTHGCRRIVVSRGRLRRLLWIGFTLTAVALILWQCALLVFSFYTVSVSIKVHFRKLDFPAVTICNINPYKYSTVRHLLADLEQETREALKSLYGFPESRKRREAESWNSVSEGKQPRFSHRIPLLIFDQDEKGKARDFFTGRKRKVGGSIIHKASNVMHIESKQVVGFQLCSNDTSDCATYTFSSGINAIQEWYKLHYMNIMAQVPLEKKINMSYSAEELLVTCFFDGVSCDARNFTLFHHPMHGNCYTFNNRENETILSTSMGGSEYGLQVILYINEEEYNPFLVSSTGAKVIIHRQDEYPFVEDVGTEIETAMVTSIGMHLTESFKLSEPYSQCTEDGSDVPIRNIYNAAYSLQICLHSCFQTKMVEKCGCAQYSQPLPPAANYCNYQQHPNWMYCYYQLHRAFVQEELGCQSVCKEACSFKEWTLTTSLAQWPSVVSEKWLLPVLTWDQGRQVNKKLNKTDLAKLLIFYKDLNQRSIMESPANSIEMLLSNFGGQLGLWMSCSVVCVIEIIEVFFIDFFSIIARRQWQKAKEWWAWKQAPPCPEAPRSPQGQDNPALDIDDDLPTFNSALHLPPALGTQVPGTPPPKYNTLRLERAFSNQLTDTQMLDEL

[2] = biological target: T1, human αβγ ENaC (α subunit); test: two-electrode voltage clamp in Xenopus oocytes, external perfusion; assay type: cell-based

For `N=C(N)NC(=O)c1nc(Cl)c(N)nc1N` [amiloride], the “two-electrode voltage clamp in Xenopus oocytes, block of current” value [1] was “Both basal and elevated currents were sensitive to amiloride”.
With `Nc1ncnc2c1nc(Sc1ccc(Cl)cc1)n2[C@@H]1O[C@@H]2COP(=O)(O)O[C@H]2[C@H]1O` [cpt-cAMP] the EC50 [2] was 49 ± 14 µM.
